Experimental data from patent publication USRE47689E1, “Compounds for treating spinal muscular atrophy” (PTC Therapeutics, Inc., priority 2011, dated 2019).
Read-outs that look alike come from different tables or passages of the source.

Assays:
Smn protein = Smn protein assay in cultured cells (SMN HTRF); assay type: cell-based, human; conditions: 48 hours; for maximum fold (Fold) increase of Smn protein: SMA patient fibroblast cells, 7-point concentration data, fold increase relative to vehicle control (SMN HTRF); for EC1.5x (concentration giving 1.5-fold Smn protein increase): SMA Type 1 patient fibroblast cells (GM03813), 7-point concentration curve, SMN HTRF, concentration producing 1.5 times Smn protein vs DMSO vehicle control, read-out: EC1.5x for Smn protein expression
Outline: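 Smn in SMA fibroblast lysates, measured by anti-SMN HTRF after 48 h compound exposure; EC1.5x from fold change over vehicle.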

[1] = tested on: SMN2 minigene (full length SMN2 minigene mRNA containing SMN2 exon 7); assay: SMN2 minigene mRNA splicing RT-qPCR assay in cultured cells; assay type: cell-based, human; conditions: Homo sapiens, HEK293-H, read-out: EC1.5x for production of full length SMN2 mRNA
Outline: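 Full-length SMN2 minigene mRNA (exon 7 included), minigene-specific and not endogenous SMN, quantified by RT-qPCR multiplexed with GAPDH in stably transfected HEK293H cells after 24 h compound exposure at 37° C. Abundance from efficiency-corrected Ct, normalized to GAPDH and vehicle; EC1.5x reported as star bins.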

[2] = HEK293H cells stably transfected with SMN2-A minigene, 24 hours, 7-point concentration curve, 1.5-fold relative to vehicle-treated cells

## Cc1cccc(-c2cc3ccc(N4CCNCC4)cc3oc2=O)c1 [Compound 511, 3-(3-methylphenyl)-7-(piperazin-1-yl)-2H-chromen-2-one]
Smn protein
  maximum fold (Fold) increase of Smn protein: * (maximum fold increase of ≤1.2)
[1]; 24 h
  EC (1.5-fold): 1 to 3 µM
other
  melting point: 118 to 120 °C

## Cc1cccc2nc(-c3cc4ccc(N5CCN(C)CC5)cc4oc3=O)cn12 [Compound 135, 3-(5-methylimidazo[1,2-a]pyridin-2-yl)-7-(4-methylpiperazin-1-yl)-2H-chromen-2-one]
Smn protein
  maximum fold (Fold) increase of Smn protein: ** (fold increase between >1.2 and ≤1.35)
[1]; [2]
  EC (1.5-fold): 0.3 to 1 µM
other
  melting point: 263 to 272 °C

## CN1CCN(c2ccc3cc(-c4cn5cccc(C6CC6)c5n4)c(=O)oc3c2)CC1 [Compound 244, 3-(8-cyclopropylimidazo[1,2-a]pyridin-2-yl)-7-(4-methylpiperazin-1-yl)-2H-chromen-2-one]
Smn protein
  maximum fold (Fold) increase of Smn protein: * (maximum fold increase of ≤1.2)
[1]; [2]
  EC (1.5-fold): 0.3 to 1 µM
other
  melting point: 198 to 202 °C

## O=c1oc2cc(N3CCNCC3)ccc2cc1-c1cccc(C(F)(F)F)n1 [Compound 90, 7-(piperazin-1-yl)-3-[6-(trifluoromethyl)pyridin-2-yl]-2H-chromen-2-one]
Smn protein
  maximum fold (Fold) increase of Smn protein: *** (fold increase between >1.35 and ≤1.5)
[1]; [2]
  EC (1.5-fold): 0.3 to 1 µM
other
  melting point: 158 to 160 °C

## CN1CCN(c2ccc3cc(-c4nc5ccccc5s4)c(=O)oc3c2)CC1 [Compound 16, 3-(1,3-benzothiazol-2-yl)-7-(4-methylpiperazin-1-yl)-2H-chromen-2-one]
Smn protein
  maximum fold (Fold) increase of Smn protein: ** (fold increase between >1.2 and ≤1.35)
[1]; [2]
  EC (1.5-fold): 0.3 to 1 µM
other
  melting point: 259 to 262 °C

## CC(C)NCCCc1ccc2cc(-c3nc4c(Cl)cccc4s3)c(=O)oc2c1 [Compound 36, 3-(4-chloro-1,3-benzothiazol-2-yl)-7-[3-(propan-2-ylamino)propyl]-2H-chromen-2-one]
Smn protein
  maximum fold (Fold) increase of Smn protein: * (maximum fold increase of ≤1.2)
[1]; [2]
  EC (1.5-fold): 1 to 3 µM
other
  melting point: 262 to 265 °C

## C[C@@H]1CN[C@@H](C)CN1c1ccc2cc(-c3cn4ccc(C(F)(F)F)cc4n3)c(=O)oc2c1 [Compound 277, 7-[(2R,5S)-2,5-dimethylpiperazin-1-yl]-3-[7-(trifluoromethyl)imidazo[1,2-a]pyridin-2-yl]-2H-chromen-2-one]
Smn protein
  maximum fold (Fold) increase of Smn protein: * (maximum fold increase of ≤1.2)
[1]; [2]
  EC (1.5-fold): 0.3 to 1 µM
other
  melting point: 213 to 219 °C

## Cc1cn2cc(-c3cc4ccc(N5CCN6CCCCC6C5)cc4oc3=O)cc2c(C)n1 (centres unmarked) [Compound 683, 3-(1,3-dimethylpyrrolo[1,2-a]pyrazin-7-yl)-7-(octahydro-2H-pyrido[1,2-a]pyrazin-2-yl)-2H-chromen-2-one]
Smn protein
  EC1.5x (concentration giving 1.5-fold Smn protein increase): < 300 nM
  maximum fold (Fold) increase of Smn protein: **** (fold increase between >1.5 and ≤1.65)
[1]; [2]
  EC (1.5-fold): < 0.1 µM
other
  melting point: 145 to 148 °C

## Cc1cn2cc(-c3cc4ccc(C5CCN(CC(C)C)CC5)cc4oc3=O)nc2c(C)n1 [Compound 914, 3-(6,8-dimethylimidazo[1,2-a]pyrazin-2-yl)-7-[1-(2-methylpropyl)piperidin-4-yl]-2H-chromen-2-one]
Smn protein
  EC1.5x (concentration giving 1.5-fold Smn protein increase): < 300 nM
  maximum fold (Fold) increase of Smn protein: **** (fold increase between >1.5 and ≤1.65)
[1]; [2]
  EC (1.5-fold): < 0.1 µM
other
  melting point: 191 to 198 °C

## CCN1CCC[C@H]2CN(c3ccc4cc(-c5cn6cc(C)nc(C)c6n5)c(=O)oc4c3)C[C@H]21 [Compound 803, 3-(6,8-dimethylimidazo[1,2-a]pyrazin-2-yl)-7-[(4aS,7aS)-1-ethyloctahydro-6H-pyrrolo[3,4-b]pyridin-6-yl]-2H-chromen-2-one]
Smn protein
  maximum fold (Fold) increase of Smn protein: *** (fold increase between >1.35 and ≤1.5)
[1]; [2]
  EC (1.5-fold): < 0.1 µM
other
  melting point: 217 to 221 °C

## C[C@@H]1CN(c2ccc3cc(-c4ccc5c(c4)OCO5)c(=O)oc3c2)C[C@H](C)N1 [Compound 487, 3-(1,3-benzodioxol-5-yl)-7-[(3R,5S)-3,5-dimethylpiperazin-1-yl]-2H-chromen-2-one]
Smn protein
  maximum fold (Fold) increase of Smn protein: * (maximum fold increase of ≤1.2)
[1]; [2]
  EC (1.5-fold): 3 to 30 µM
other
  melting point: 123 to 125 °C

## CCN(CC)C1CN(c2ccc3cc(-c4cn5cc(C)nc(C)c5n4)c(=O)oc3c2)C1 [Compound 944, 7-[3-(diethylamino)azetidin-1-yl]-3-(6,8-dimethylimidazo[1,2-a]pyrazin-2-yl)-2H-chromen-2-one]
Smn protein
  EC1.5x (concentration giving 1.5-fold Smn protein increase): 300 to 1000 nM
  maximum fold (Fold) increase of Smn protein: **** (fold increase between >1.5 and ≤1.65)
[1]; [2]
  EC (1.5-fold): < 0.1 µM
other
  melting point: 218 to 220 °C

## Cc1cn2cc(-c3cc4ccc(CCNC(C)CO)cc4oc3=O)nc2c(C)n1 (centres unmarked) [Compound 872, 3-(6,8-dimethylimidazo[1,2-a]pyrazin-2-yl)-7-{2-[(1-hydroxypropan-2-yl)amino]ethyl}-2H-chromen-2-one]
Smn protein
  EC1.5x (concentration giving 1.5-fold Smn protein increase): 300 to 1000 nM
  maximum fold (Fold) increase of Smn protein: **** (fold increase between >1.5 and ≤1.65)
[1]; [2]
  EC (1.5-fold): 0.1 to 0.3 µM
other
  melting point: 203 to 206 °C

## Cc1ccc2cc(-c3cc4ccc(N5C[C@@H](C)N[C@@H](C)C5)cc4oc3=O)cn2n1 [Compound 639, 7-[(3R,5S)-3,5-dimethylpiperazin-1-yl]-3-(2-methylpyrrolo[1,2-b]pyridazin-6-yl)-2H-chromen-2-one]
Smn protein
  maximum fold (Fold) increase of Smn protein: * (maximum fold increase of ≤1.2)
[1]; [2]
  EC (1.5-fold): < 0.1 µM
other
  melting point: 105 to 108 °C

## Cc1cccc(-c2cc3ccc(N4CCN[C@@H](C)C4)cc3oc2=O)c1 [Compound 512, 3-(3-methylphenyl)-7-[(3S)-3-methylpiperazin-1-yl]-2H-chromen-2-one]
Smn protein
  maximum fold (Fold) increase of Smn protein: * (maximum fold increase of ≤1.2)
[1]; [2]
  EC (1.5-fold): 1 to 3 µM
other
  melting point: 101 to 103 °C

## Cc1ccc2nc(-c3cc4ccc(N5CCNCC5)c(F)c4oc3=O)cn2c1 [Compound 156, 8-fluoro-3-(6-methylimidazo[1,2-a]pyridin-2-yl)-7-(piperazin-1-yl)-2H-chromen-2-one]
Smn protein
  maximum fold (Fold) increase of Smn protein: ** (fold increase between >1.2 and ≤1.35)
[1]; [2]
  EC (1.5-fold): 1 to 3 µM
other
  melting point: 313 to 319 °C

## COc1cccc(-c2cc3ccc(N4CCN[C@@H](C)C4)cc3oc2=O)n1 [Compound 362, 3-(6-methoxypyridin-2-yl)-7-[(3S)-3-methylpiperazin-1-yl]-2H-chromen-2-one]
Smn protein
  maximum fold (Fold) increase of Smn protein: ** (fold increase between >1.2 and ≤1.35)
[1]; [2]
  EC (1.5-fold): 0.3 to 1 µM
other
  melting point: 155 to 157 °C

## C[C@H]1CN(c2ccc3cc(-c4cn5cccnc5n4)c(=O)oc3c2)CCN1 [Compound 170, 3-(imidazo[1,2-a]pyrimidin-2-yl)-7-[(3S)-3-methylpiperazin-1-yl]-2H-chromen-2-one]
Smn protein
  maximum fold (Fold) increase of Smn protein: ** (fold increase between >1.2 and ≤1.35)
[1]; [2]
  EC (1.5-fold): 0.3 to 1 µM
other
  melting point: 282 to 285 °C

## CCN1CCN(c2ccc3cc(-c4cn5cc(C)sc5n4)c(=O)oc3c2)CC1 [Compound 151, 7-(4-ethylpiperazin-1-yl)-3-(2-methylimidazo[2,1-b][1,3]thiazol-6-yl)-2H-chromen-2-one]
Smn protein
  maximum fold (Fold) increase of Smn protein: * (maximum fold increase of ≤1.2)
[1]; [2]
  EC (1.5-fold): 3 to 30 µM
other
  melting point: 205 to 208 °C

## Cc1cn2cc(-c3cc4ccc(C5CCN(C6CCC6)CC5)cc4oc3=O)nc2cn1 [Compound 869, 7-(1-cyclobutylpiperidin-4-yl)-3-(6-methylimidazo[1,2-a]pyrazin-2-yl)-2H-chromen-2-one]
Smn protein
  EC1.5x (concentration giving 1.5-fold Smn protein increase): < 300 nM
  maximum fold (Fold) increase of Smn protein: ***** (fold increase >1.65)
[1]; [2]
  EC (1.5-fold): < 0.1 µM
other
  melting point: 256 to 268 °C

## Cc1cn2cc(-c3cc4ccc(N5C[C@@H]6[C@H](C5)[C@H]6N(C)C)cc4oc3=O)nc2c(C)n1 [Compound 761, 7-[(1R,5S,6s)-6-(dimethylamino)-3-azabicyclo[3.1.0]hex-3-yl]-3-(6,8-dimethylimidazo[1,2-a]pyrazin-2-yl)-2H-chromen-2-one]
Smn protein
  EC1.5x (concentration giving 1.5-fold Smn protein increase): < 300 nM
  maximum fold (Fold) increase of Smn protein: **** (fold increase between >1.5 and ≤1.65)
[1]; [2]
  EC (1.5-fold): < 0.1 µM
other
  melting point: 271 to 274 °C

## Cn1cc2cc(-c3cc4ccc(C5CCNCC5)cc4oc3=O)ccc2n1 [Compound 856, 3-(2-methyl-2H-indazol-5-yl)-7-(piperidin-4-yl)-2H-chromen-2-one]
Smn protein
  EC1.5x (concentration giving 1.5-fold Smn protein increase): < 300 nM
  maximum fold (Fold) increase of Smn protein: ***** (fold increase >1.65)
[1]; [2]
  EC (1.5-fold): < 0.1 µM
other
  melting point: 232 to 238 °C

## C[C@@H]1CN(c2ccc3cc(-c4cc5ccccn5c4)c(=O)oc3c2)C[C@H](C)N1 [Compound 553, 7-[(3R,5S)-3,5-dimethylpiperazin-1-yl]-3-(indolizin-2-yl)-2H-chromen-2-one]
Smn protein
  maximum fold (Fold) increase of Smn protein: * (maximum fold increase of ≤1.2)
[1]; [2]
  EC (1.5-fold): 0.3 to 1 µM
other
  melting point: 164 to 167 °C

## O=c1oc2cc(N3CCNCC3)ccc2cc1-c1cn2ccncc2n1 [Cpd 456, 3-(imidazo[1,2-a]pyrazin-2-yl)-7-(piperazin-1-yl)-2H-chromen-2-one]
Smn protein
  EC1.5x (concentration giving 1.5-fold Smn protein increase): 1000 to 3000 nM
  maximum fold (Fold) increase of Smn protein: **** (fold increase between >1.5 and ≤1.65)
[1]; [2]
  EC (1.5-fold): < 0.1 µM
other
  melting point: 258 to 260 °C
